Test results as given in patent US20260265329A1, “POLYPEPTIDE AND DERIVATIVE THEREOF, COMPOSITION, AND USE THEREOF” (HANGZHOU SCIWIND BIOSCIENCES CO., LTD., priority 2023, published 2026).
Starred links: 1 amine or outer side, 2 acyl side, 3 side chain; linkers in the order of their positions; H or OH if unused. Non-standard residues stand in square brackets, D forms with d. Residues, ends and D or L forms follow the SMILES beside them. *: point of attachment. C20 diacid = O=C(O)CCCCCCCCCCCCCCCCCCC(=O)*; γGlu = O=C(O)[C@H](CCC(=O)[*:2])N[*:1]; βAsp = O=C(O)[C@H](CC(=O)[*:2])N[*:1]; Hyp = O=C(O)[C@@H]1C[C@@H](O)CN1

Experiments:
human amylin receptors = target: T1, human amylin receptors (Homo sapiens, UniProt O60896+P30988); assay: Luciferase assay in stably transfected amylin receptor/CRE-luc CHO cell line; type: cell-based; settings: for Relative activity: EC50 ratio of Cagrilintide to the compound, Cagrilintide 100%; for EC50: amylin receptor/CRE-luc CHO cells, 24 hours incubation, luminescence
T1 construct: host or cells: CHO-K1/Ga15/AMY3 cells, further stably transfected with a CRE-luciferase plasmid
T1 sequence (P30988 25-474): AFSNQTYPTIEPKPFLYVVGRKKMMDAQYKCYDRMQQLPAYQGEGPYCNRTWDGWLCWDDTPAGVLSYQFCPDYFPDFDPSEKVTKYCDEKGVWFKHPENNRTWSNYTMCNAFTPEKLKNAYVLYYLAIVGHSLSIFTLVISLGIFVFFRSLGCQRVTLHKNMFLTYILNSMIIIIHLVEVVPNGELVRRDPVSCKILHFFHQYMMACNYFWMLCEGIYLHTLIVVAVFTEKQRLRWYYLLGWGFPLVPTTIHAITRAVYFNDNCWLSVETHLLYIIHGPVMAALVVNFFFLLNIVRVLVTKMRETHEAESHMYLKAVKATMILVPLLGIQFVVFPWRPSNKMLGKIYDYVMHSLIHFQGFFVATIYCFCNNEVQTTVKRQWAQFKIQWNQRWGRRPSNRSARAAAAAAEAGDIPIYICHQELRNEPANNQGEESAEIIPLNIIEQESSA
T1 sequence (O60896 24-148 partner): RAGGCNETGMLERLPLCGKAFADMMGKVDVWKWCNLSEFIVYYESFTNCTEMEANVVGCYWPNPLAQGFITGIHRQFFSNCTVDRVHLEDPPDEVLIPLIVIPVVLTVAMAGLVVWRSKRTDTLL

[1] = Heat accelerated stability assay, 40° C., detection on 7 d and 28 d; type: physicochemical; settings: for Purity from the reversed phase chromatography-214 nm, 0 d / Purity from the reversed phase chromatography-214 nm, 7 d / Purity from the reversed phase chromatography-214 nm, 28 d: 1 mg/mL, pH about 7.4, 40° C.; for Change (7 d − 0 d): purity on 7 d − purity on 0 d; for Change (7 d − 0 d) / Change (28 d − 0 d): 40° C., pH about 7.4; for Change (28 d − 0 d): purity on 28 d − purity on 0 d
Method: The derivatives (1 mg/mL) were mixed with sodium dihydrogen phosphate (1.42 mg/mL) and dissolved in ultrapure water. After adjusting pH to about 7.4 with hydrochloric acid/sodium hydroxide, the solution was filtered into a sterilized vial in a clean bench using a 0.22 μm sterile filter. The vial was then capped and placed into the stability test chamber at 40° C. Detections were made on Days 7 (7d) and 28 (28d), and during the assay, changes in the characteristics and properties of the polypeptides were observed and recorded. The sample was then centrifuged for 3 min at 10000 rpm at 4° C., and the supernatant was transferred to a liquid phase sample vial for detecting the concentration and purity of the polypeptides using liquid phase chromatography described as below.
Conditions of the reversed phase chromatography Flow rate: 1.0 mL/min; Autosampler temperature: 15° C.; Column temperature: 25° C.; Detection wavelength: 214 nm; Mobile phase A: 100% H2O+0.05% TFA; Mobile phase B: 100% ACN; and Gradient of elution listed in Table 4: […]

[2] = target: T2, human amylin receptor on CHO-K1/Ga15/AMY3 cells (amylin receptor/CRE-luc cell line) (human) (UniProt P30988); assay: cell-based or functional assay
T2 sequence (looked up) 1: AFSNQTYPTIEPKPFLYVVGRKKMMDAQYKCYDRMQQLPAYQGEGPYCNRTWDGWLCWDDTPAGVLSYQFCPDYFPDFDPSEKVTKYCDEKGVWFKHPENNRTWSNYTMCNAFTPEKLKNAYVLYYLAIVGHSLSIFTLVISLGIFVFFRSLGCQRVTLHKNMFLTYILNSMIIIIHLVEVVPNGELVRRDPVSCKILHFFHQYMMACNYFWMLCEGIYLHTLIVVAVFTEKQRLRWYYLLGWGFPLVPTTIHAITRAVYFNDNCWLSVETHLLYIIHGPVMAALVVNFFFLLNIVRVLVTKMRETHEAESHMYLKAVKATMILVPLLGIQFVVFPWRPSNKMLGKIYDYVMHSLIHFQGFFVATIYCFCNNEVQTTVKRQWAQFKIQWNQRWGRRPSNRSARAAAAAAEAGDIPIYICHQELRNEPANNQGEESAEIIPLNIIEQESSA
T2 sequence (looked up) 2: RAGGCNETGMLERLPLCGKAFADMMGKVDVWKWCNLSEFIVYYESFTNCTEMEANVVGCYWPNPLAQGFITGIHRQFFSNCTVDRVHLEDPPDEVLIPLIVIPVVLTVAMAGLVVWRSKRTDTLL

Molecule | Relative activity (human amylin receptors) | EC50 (human amylin receptors) | Purity from the reversed phase chromatography-214 nm, 0 d [1] | Purity from the reversed phase chromatography-214 nm, 7 d [1] | Purity from the reversed phase chromatography-214 nm, 28 d [1] | Change (7 d − 0 d) [1] | Change (28 d − 0 d) [1] | EC50 (luciferase assay, amylin receptor/CRE-luc CHO cells) [2] | Relative activity (the EC50 ratio of Cagrilintide to the compound) [2]
CC[C@H](C)[C@H](NC(=O)[C@H](CC(=O)O)NC(=O)[C@H](CCCNC(=N)N)NC(=O)[C@H](CC(=O)O)NC(=O)[C@H](CCCNC(=N)N)NC(=O)[C@H](CC(=O)O)NC(=O)[C@@H](NC(=O)[C@H](Cc1ccccc1)NC(=O)[C@H](Cc1c[nH]cn1)NC(=O)[C@H](CCCNC(=N)N)NC(=O)[C@H](CC(C)C)NC(=O)[C@H](Cc1ccccc1)NC(=O)[C@H](CC(=O)O)NC(=O)[C@H](C)NC(=O)[C@H](CC(C)C)NC(=O)[C@H](CCCNC(=N)N)NC(=O)[C@H](CCC(N)=O)NC(=O)[C@@H](NC(=O)[C@@H](NC(=O)[C@H](C)NC(=O)[C@@H](NC(=O)[C@H](CO)NC(=O)[C@H](CC(C)C)NC(=O)[C@H](CCC(N)=O)NC(=O)[C@H](CO)NC(=O)[C@H](C)NC(=O)CC[C@H](NC(=O)CCCCCCCCCCCCCCCCCCC(=O)O)C(=O)O)[C@@H](C)O)C(C)C)[C@@H](C)O)[C@@H](C)O)C(=O)N[C@@H](CC(C)C)C(=O)N1CCC[C@H]1C(=O)N1CCC[C@H]1C(=O)N[C@H](C(=O)N[C@@H](CC(N)=O)C(=O)N[C@H](C(=O)NCC(=O)N[C@@H](CO)C(=O)N[C@@H](CC(N)=O)C(=O)N[C@H](C(=O)N1CCC[C@H]1C(N)=O)[C@@H](C)O)C(C)C)[C@@H](C)O [M8] ({C20 diacid-γGlu}-ASQLSTAVTQRLADFLRHFTDRDRDILPPTNVGSNTP-NH2) | 53% | 49 pM | 86.93 | 86.57 | 87.31 | −0.36 | 0.38 |  | 
CC[C@H](C)[C@H](NC(=O)[C@@H]1CCCN1C(=O)[C@H](CCCCN)NC(=O)[C@H](CC(C)C)NC(=O)[C@H](CC(N)=O)NC(=O)[C@H](CC(N)=O)NC(=O)[C@H](CO)NC(=O)[C@H](CO)NC(=O)[C@H](Cc1c[nH]cn1)NC(=O)[C@H](CCCNC(=N)N)NC(=O)[C@H](CC(C)C)NC(=O)[C@H](Cc1ccccc1)NC(=O)[C@H](CC(=O)O)NC(=O)[C@H](C)NC(=O)[C@H](CC(C)C)NC(=O)[C@H](CCCNC(=N)N)NC(=O)[C@H](CCC(N)=O)NC(=O)[C@@H](NC(=O)[C@H](C)NC(=O)[C@H](C)NC(=O)[C@@H](NC(=O)[C@H](CO)NC(=O)[C@H](CC(C)C)NC(=O)[C@H](CCC(N)=O)NC(=O)[C@H](CO)NC(=O)[C@H](C)NC(=O)CC[C@H](NC(=O)CCCCCCCCCCCCCCCCCCC(=O)O)C(=O)O)[C@@H](C)O)[C@@H](C)O)C(=O)N[C@@H](CC(C)C)C(=O)N1CCC[C@H]1C(=O)N1CCC[C@H]1C(=O)N[C@H](C(=O)N[C@@H](CC(N)=O)C(=O)N[C@H](C(=O)NCC(=O)N[C@@H](CO)C(=O)N[C@@H](CC(N)=O)C(=O)N[C@H](C(=O)N1C[C@H](O)C[C@H]1C(N)=O)[C@@H](C)O)C(C)C)[C@@H](C)O [M5] ({C20 diacid-γGlu}-ASQLSTAATQRLADFLRHSSNNLKPILPPTNVGSNT[Hyp]-NH2) | 84% | 31 pM | 92.36 | 91.35 | 91.34 | −1.01 | −1.02 |  | 
{C20 diacid}-EASQLSTAATQRLADFLRHSSNNLKPILPPTNVGSNT[Hyp]-NH2 (SMILES CC[C@H](C)[C@H](NC(=O)[C@@H]1CCCN1C(=O)[C@H](CCCCN)NC(=O)[C@H](CC(C)C)NC(=O)[C@H](CC(N)=O)NC(=O)[C@H](CC(N)=O)NC(=O)[C@H](CO)NC(=O)[C@H](CO)NC(=O)[C@H](Cc1c[nH]cn1)NC(=O)[C@H](CCCNC(=N)N)NC(=O)[C@H](CC(C)C)NC(=O)[C@H](Cc1ccccc1)NC(=O)[C@H](CC(=O)O)NC(=O)[C@H](C)NC(=O)[C@H](CC(C)C)NC(=O)[C@H](CCCNC(=N)N)NC(=O)[C@H](CCC(N)=O)NC(=O)[C@@H](NC(=O)[C@H](C)NC(=O)[C@H](C)NC(=O)[C@@H](NC(=O)[C@H](CO)NC(=O)[C@H](CC(C)C)NC(=O)[C@H](CCC(N)=O)NC(=O)[C@H](CO)NC(=O)[C@H](C)NC(=O)[C@H](CCC(=O)O)NC(=O)CCCCCCCCCCCCCCCCCCC(=O)O)[C@@H](C)O)[C@@H](C)O)C(=O)N[C@@H](CC(C)C)C(=O)N1CCC[C@H]1C(=O)N1CCC[C@H]1C(=O)N[C@H](C(=O)N[C@@H](CC(N)=O)C(=O)N[C@H](C(=O)NCC(=O)N[C@@H](CO)C(=O)N[C@@H](CC(N)=O)C(=O)N[C@H](C(=O)N1C[C@H](O)C[C@H]1C(N)=O)[C@@H](C)O)C(C)C)[C@@H](C)O) [M26] |  |  |  |  |  |  |  | 49 pM | 103%
{C20 diacid-βAsp}-ASQLSTAATQRLADFLRHSSNNLKPILPPTNVGSNT[Hyp]-NH2 (SMILES CC[C@H](C)[C@H](NC(=O)[C@@H]1CCCN1C(=O)[C@H](CCCCN)NC(=O)[C@H](CC(C)C)NC(=O)[C@H](CC(N)=O)NC(=O)[C@H](CC(N)=O)NC(=O)[C@H](CO)NC(=O)[C@H](CO)NC(=O)[C@H](Cc1c[nH]cn1)NC(=O)[C@H](CCCNC(=N)N)NC(=O)[C@H](CC(C)C)NC(=O)[C@H](Cc1ccccc1)NC(=O)[C@H](CC(=O)O)NC(=O)[C@H](C)NC(=O)[C@H](CC(C)C)NC(=O)[C@H](CCCNC(=N)N)NC(=O)[C@H](CCC(N)=O)NC(=O)[C@@H](NC(=O)[C@H](C)NC(=O)[C@H](C)NC(=O)[C@@H](NC(=O)[C@H](CO)NC(=O)[C@H](CC(C)C)NC(=O)[C@H](CCC(N)=O)NC(=O)[C@H](CO)NC(=O)[C@H](C)NC(=O)C[C@H](NC(=O)CCCCCCCCCCCCCCCCCCC(=O)O)C(=O)O)[C@@H](C)O)[C@@H](C)O)C(=O)N[C@@H](CC(C)C)C(=O)N1CCC[C@H]1C(=O)N1CCC[C@H]1C(=O)N[C@H](C(=O)N[C@@H](CC(N)=O)C(=O)N[C@H](C(=O)NCC(=O)N[C@@H](CO)C(=O)N[C@@H](CC(N)=O)C(=O)N[C@H](C(=O)N1C[C@H](O)C[C@H]1C(N)=O)[C@@H](C)O)C(C)C)[C@@H](C)O) [M27] |  |  |  |  |  |  |  | 64 pM | 78%
